# Data published in US20250066323A1, “INHIBITORS OF HUMAN RESPIRATORY SYNCYTIAL VIRUS AND METAPNEUMOVIRUS” (priority 2023, published 2025).
# Where two headings read alike, the source gives them in different places.
# How the values were obtained:
# hMPV-GFP = hMPV-GFP viral replication assay; format: cell-based, human metapneumovirus; settings: read-out: hMPV EC50
# Experimental: GFP expressing rgHMPV #3 p3 was generated in Dr. Buchholz's lab (Biacchesi S. et al., J Virol. 2007 June; 81(11): 6057-6067.) and propagated in VERO cells (kidney tissue derived from a normal, adult African green monkey. ATCC Cat #CCL-81) with infection Multiplicity of Infection (MOI) of 0.1. Virus was harvested 4 days after infection by collecting all culture material and freeze-thaw the viral culture in liquid nitrogen twice. To generating virus working stocks, thaw frozen samples in 37° C. water bath then centrifuge at 218 g for 15 min at 4° C. Add 1/10 of 10×SPG (Biological Industries 06-3061-01-5A), mix, aliquot supernatant, and quick-freeze in liquid nitrogen then transfer to −80° C. freezer for storage. Virus titer was determined by performing titration test in 96-well plates and calculate approximate virus titer using GFP event/well data.
# Compound plates were prepared by dispensing compounds dissolved in DMSO into wells of 384 well coming 3985 polystyrene flat clear bottom optical imaging microplates (202.5 nL/well) using an ECHO acoustic dispenser. Each compound was tested in a 10-point serial 3-fold dilution (typical final concentrations: 40,300 nM-2 nM). […] Continuous culture of VERO cells were maintained in complete culture media (OptiMEM supplemented with 2 mM GlutaMAX™ and 100 U/ml Penicillin-Streptomycin). To set up the assay, trypsinize VERO cells with 0.25% Trypsin-EDTA until cells dislodge, then re-suspend cells with 1 mL FBS. Spin down cells at 300 g for 5 min and wash cells twice in culture media, then count cells using default parameters on ViCell. Cells were then diluted to 100,000 cells/ml (5,000 cells/50 μl) in complete culture media+TrypLE Select (80 μl/ml). Add hMPV-GFP virus to cells at 125,000 pfu/ml (MOI=1.25). Mix by gentle inversion. 10 μl/well of 100% DMSO was dispensed to CellTiter-Glo (CTG) assay Max_E controls wells. Dispense cells at 50 μl/well using Bravo and 50 μl filtered tips into compound plates. Cover plates with MicroClime lids loaded with 7.5 ml of assay media to minimize evaporation. Lightly shake plate for 10 minutes at room temperature then incubate at 37 degrees C. and 5% CO2 for 48 hrs. Following incubation, distinct, GFP-expressing cells are counted using an Acumen imaging system with appropriate settings. A same-well CTG assay is performed by adding 10 μl/well reconstituted CellTiter-Glo reagent (Promega G7573) and reading plates on PerkinElmer Envision according to manufacturer's instructions. Raw data were loaded and analyzed in ActivityBase. Antiviral IC50 and cytotoxicity CC50 values were determined using a 4 parameter logistic fit based on the Levenberg-Marquardt algorithm. Model: 205-4 Parameter Logistic.
# RSV-A2-GFP = RSV-A2-GFP viral replication assay; format: cell-based, Human Respiratory Syncytial Virus
# Text: GFP sequence was derived from pJTI™ R4 Dest CMV N-EmGFP pA Vector (Invitrogen) and was cloned into the intergenic sequence between wild-type RSV-A2 P and M genes using standard recombineering techniques. Recombinant RSV-A2-GFP was propagated in Hep2 cells (human cells contains HeLa marker chromosomes and were derived via HeLa contamination, ATCC CCL-23) with infection Multiplicity of Infection (MOI) of 0.1. Virus was harvested 3 days after infection by collecting all culture material and freeze-thaw the viral culture in liquid nitrogen for at least 5 times. To generating virus working stocks, thaw frozen samples in 37° C. water bath then centrifuge at 218 g for 15 min at 4° C. Add 1/10 of 10×SPG (Biological Industries 06-3061-01-5A), mix, aliquot supernatant, and quick-freeze in liquid nitrogen then transfer to −80° C. freezer for storage. Virus titer was determined by automated plaque assay in HEp-2 cells following methods described previously (Wen Z. et al.; J Virol Methods. 2019 January; 263:88-95).
# Calu-1 cells (human lung epidermoid carcinoma, ATCC HTB-54) assay ready freezedown (ARF generation described separately) were used in assays. Compound plates were prepared by dispensing compounds dissolved in DMSO into wells of 384 well coming 3985 polystyrene flat clear bottom optical imaging microplates (202.5 nL/well) using an ECHO acoustic dispenser. Each compound was tested in a 10-point serial 3-fold dilution (typical final concentrations: 403 nM-0.02 nM and 40.3 nM-0.002 nM). […] To set up the assay, thaw ARF vial(s) in 37° C. water bath until small ice crystal remain and resuspend into assay media (DMEM containing 2% FBS, 100 U/ml Penicillin-Streptomycin). Count cells using default parameters on ViCell and dilute to 20,000 cells per ml in assay media. Add RSV GFP to cells at 24,000 pfu/ml (MOI=1.2). Mix by gentle inversion. 10 μl/well of 100% DMSO was dispensed to CellTiter-Glo (CTG) assay Max_E controls wells. Dispense cells at 50 μl/well using Bravo and 50 μl filtered tips into compound plates. Cover plates with MicroClime lids loaded with 7.5 ml of assay media to minimize evaporation. Incubate at 37 degrees C. and 5% CO2 for 96 hrs. Following incubation, distinct, GFP-expressing cells are counted using an Acumen imaging system with appropriate settings. A same-well CTG assay is performed by adding 10 μl/well reconstituted CellTiter-Glo reagent (Promega G7573) and reading plates on PerkinElmer Envision according to manufacturer's instructions. Raw data were loaded and analyzed in ActivityBase. Antiviral IC50 and cytotoxicity CC50 values were determined using a 4 parameter logistic fit based on the Levenberg-Marquardt algorithm. Model: 205-4 Parameter Logistic.
# Calu-1 cells were purchased from ATCC (Cat #HTB-54) and are expanded in growth media (DMEM containing 10% FBS, 100 U/ml Penicillin-Streptomycin). To make ARF, remove and discard cell culture media, briefly rinse the cell layer with PBS to remove all traces of serum. Add 2.5 ml of TrypLE Express solution and incubate until cells dislodge, then add growth media and resuspend the cells by gentle pipetting. Count cells for concentration and determine viability using a ViCell. Centrifuge at RT, 300 g for 5 min to pellet cells. Gently aspirate supernatant, flick pellet to loosen cells. Resuspend cells in an appropriate volume of freezing medium (DMEM containing 10% DMSO, 10% FBS, 100 U/ml Penicillin-Streptomycin) to achieve 5×10^6/ml. Transfer 1 ml of cell suspension to freezing vials. Put vials to CoolCell cryopreservation container and place CoolCell container upright in a −80° C. freezer overnight before transferring vials to liquid nitrogen vapor for storage.
# [1] = human metapneumovirus, Vero, 48 h
# [2] = human respiratory syncytial virus, Calu-1, 96 h, read-out: RSV EC50, Calu-1 cells, RSV-A2-GFP MOI=1.2, 96 hrs, GFP-expressing cells counted
# [3] = VERO cells, hMPV-GFP MOI=1.25, 48 hrs, GFP-expressing cells counted
# [4] = read-out: RSV EC50, Calu-1 cells, RSV-A2-GFP MOI=1.2, 96 hrs, GFP-expressing cells counted
SMILES,EC50 (hMPV-GFP; [1]),EC50 (RSV-A2-GFP; [2]),EC50 (hMPV-GFP; [3]),EC50 (RSV-A2-GFP; [4])
"Cn1nc(-c2cscn2)cc1C(=O)NCC(C)(O)c1cc(C(C)(C)N)cc(-c2ccc(Cl)cc2)n1 (single isomer, unassigned) [Example 13-B]",> 100 nM,< 10 nM,–,–
"Cn1nc(-c2cscn2)cc1C(=O)NCC(C)(O)c1cc2c(c(-c3ccc(F)cc3)n1)OCC2(C)N (single isomer, unassigned) [Example 28-C]",–,–,> 100 nM,> 100 nM
"Cn1nc(-c2cscn2)cc1C(=O)NCC(C)(O)c1cc2c(c(-c3ccc(F)cc3)n1)OCC2(C)N (single isomer, unassigned) [Example 28-A]",> 100 nM,–,–,< 10 nM
"Cn1nc(-c2cscn2)cc1C(=O)NCC(C)(O)c1cc(C2(C)CCNC2)cc(-c2ccc(F)cc2)n1 (single isomer, unassigned) [Example 27-B]",–,–,> 100 nM,> 100 nM
"Cc1nc(-c2ncccn2)sc1C(=O)NCC(O)(c1cc(C(C)(C)N)cc(-c2ccc(F)cc2)n1)C1CC1 (single isomer, unassigned) [Example 22-B]",–,–,> 100 nM,< 10 nM
"Cn1nc(-c2cscn2)cc1C(=O)NCC(C)(O)c1cc(C(C)(C)N)cc(-c2ccc(F)c(Cl)c2)n1 (single isomer, unassigned) [Example 16-B]",> 100 nM,< 10 nM,–,–
"CCOc1cc(C(=O)NCC(C)(O)c2cc(C(C)(C)N)cc(-c3ccc(F)cc3)n2)n(C)n1 (single isomer, unassigned) [Example 01-B]",–,–,> 100 nM,< 10 nM
"Cc1nc(-c2cscn2)sc1C(=O)NCC(C)(O)c1cc(C(C)(C)N)cc(-c2ccc(F)cc2)n1 (single isomer, unassigned) [Example 07-B]",> 100 nM,< 10 nM,–,–
"CC(C)(N)c1cc(-c2ccc(F)cc2)nc(C(C)(O)CNC(=O)c2sc(-c3cscn3)nc2C2CC2)c1 (single isomer, unassigned) [Example 08-B]",> 100 nM,< 10 nM,–,–
"Cc1cc(F)ccc1-c1cc(C(C)(C)N)cc(C(C)(O)CNC(=O)c2cc(-c3cscn3)nn2C)n1 (single isomer, unassigned) [Example 19-B]",> 100 nM,< 10 nM,–,–
"Cn1nc(-c2cscn2)cc1C(=O)NCC(C)(O)c1cc(C(C)(C)N)cc(-c2ccc(F)c(F)c2)n1 (single isomer, unassigned) [Example 15-B]",> 100 nM,< 10 nM,–,–
"Cn1nc(-n2cccn2)cc1C(=O)NCC(C)(O)c1cc2c(c(-c3ccc(F)cc3)n1)OCC2(C)C(N)=O (single isomer, unassigned) [Example 29-C, 7-(4-fluorophenyl)-5-(2-hydroxy-1-(1′-methyl-1′H-[1,3′-bipyrazole]-5′-carboxamido)propan-2-yl)-3-methyl-2,3-dihydrofuro[2,3-c]pyridine-3-carboxamide]",–,–,–,< 10 nM
"Cn1nc(-n2cccn2)cc1C(=O)NCC(C)(O)c1cc(C(C)(C)N)cc(-c2ccc(F)c(F)c2)n1 (single isomer, unassigned) [Example 38-B, N-(2-(4-(2-aminopropan-2-yl)-6-(3,4-difluorophenyl)pyridin-2-yl)-2-hydroxypropyl)-1′-methyl-1′H-[1,3′-bipyrazole]-5′-carboxamide]",–,< 10 nM,–,–
"CC(N)C(C)(C)c1cc(-c2ccc(F)cc2)nc(C(C)(O)CNC(=O)c2cc(-n3cccn3)nn2C)c1 (single isomer, unassigned) [Example 33-A, N-(2-(4-(3-amino-2-methylbutan-2-yl)-6-(4-fluorophenyl)pyridin-2-yl)-2-hydroxypropyl)-1′-methyl-1′H-[1,3′-bipyrazole]-5′-carboxamide]",–,–,–,> 100 nM
"Cn1nc(-n2cccn2)cc1C(=O)NCC(C)(O)c1cc2c(c(-c3ccc(F)cc3)n1)OCC2(C)C(N)=O (single isomer, unassigned) [Example 29-D, 7-(4-fluorophenyl)-5-(2-hydroxy-1-(1′-methyl-1′H-[1,3′-bipyrazole]-5′-carboxamido)propan-2-yl)-3-methyl-2,3-dihydrofuro[2,3-c]pyridine-3-carboxamide]",–,–,–,10 to 100 nM
"Cn1nc(-n2cccn2)cc1C(=O)NCC(O)(c1cc(C(C)(C)N)cc(-c2ccc(F)cc2)n1)C(F)(F)F (single isomer, unassigned) [Example 36-A, N-(2-(4-(2-aminopropan-2-yl)-6-(4-fluorophenyl)pyridin-2-yl)-3,3,3-trifluoro-2-hydroxypropyl)-1′-methyl-1′H-[1,3′-bipyrazole]-5′-carboxamide]",–,< 10 nM,–,–
"CC(N)C(C)(C)c1cc(-c2ccc(F)cc2)nc(C(C)(O)CNC(=O)c2cc(-n3cccn3)nn2C)c1 (single isomer, unassigned) [Example 33-D, N-(2-(4-(3-amino-2-methylbutan-2-yl)-6-(4-fluorophenyl)pyridin-2-yl)-2-hydroxypropyl)-1′-methyl-1′H-[1,3′-bipyrazole]-5′-carboxamide]",–,–,–,< 10 nM
"Cn1nc(-n2cccn2)cc1C(=O)NCC(C)(O)c1cc(C(C)(C)N)cc(Cc2ccc(F)cc2)n1 (single isomer, unassigned) [Example 40-B, N-(2-(4-(2-aminopropan-2-yl)-6-(4-fluorobenzyl)pyridin-2-yl)-2-hydroxypropyl)-1′-methyl-1′H-[1,3′-bipyrazole]-5′-carboxamide]",–,< 10 nM,–,–
"Cn1nc(-n2cccn2)cc1C(=O)NCC(C)(O)c1cc2c(c(-c3ccc(F)cc3)n1)OCC2(C)C(N)=O (single isomer, unassigned) [Example 29-B, 7-(4-fluorophenyl)-5-(2-hydroxy-1-(1′-methyl-1′H-[1,3′-bipyrazole]-5′-carboxamido)propan-2-yl)-3-methyl-2,3-dihydrofuro[2,3-c]pyridine-3-carboxamide]",–,–,–,> 100 nM
